# Tests used:
# [1] = tested on: Human non-small-cell lung carcinoma H460 cells; test: Cancer cell inhibition in vitro, crystal violet staining, cell viability; format: cell-based; conditions: for Absorbency of Stained Cells (M ± SD) / viability at 40 µg/mL / viability at 25 µg/mL / V(%) cancer cell viability: H460 cells, 24 hours; for Absorbency of Stained Cells (M ± SD): 590 nm; for viability at 40 µg/mL / viability at 25 µg/mL: Homo sapiens, NCI-H460, read-out: V(%) cancer cell viability; for inhibitory effect on proliferation of H460 cells (in words): P<0.01 compared with control; for inhibitory effect on proliferation of H460 cells compared with Rh2 (in words): P<0.05 compared with that of Rh2
# Protocol: Composition: 20(S)-Rh2 was provided by Shenyang Pegasus Pharmaceutical R&D Co., China, with a purity of over 98%. The molecular weight for Rh2 was 622.3. Sapogenins PAM-120, PBM-100 and PAN-30 were derived from the process stated in Example 1. The molecular weights of PAM-120, PBM-100 and PAN-30 were respectively 442.7, 474.7 and 766.6, and the purity for each of the three agents was higher than 99%. Rh2, PAM-120, PBM-100 and PAN-30 were dissolved 1 gram each separately in 100 ml absolute ethanol and stored at 4° C. the agents were diluted with RPMI-1640 medium to the desired concentrations as shown in Table 1.
# Cells: Human non-small-cell lung carcinoma H460 cells were incubated in RPMI-1640 medium added with 10% fetal calf serum, 100 units penicillin/ml, and 100 μg streptomycin/ml in 5% CO2 at 37° C.
# In vitro treatment: H460 cells were seeded in 96-well flat-bottomed microtest-plates at 1.2×10^3 cells per well, six wells in each group, incubated in humidified 5% CO2 at 37° C. for 24 hours with or without the agents according to the schedule as shown below.
# After the 24 hours of incubation, an equal volume of 10% formalin phosphate-buffered saline containing 0.2% crystal violet was added to each well and left at room temperature for 20 minutes. The plates were then washed twice with distilled water and dried at room temperature. The absorbency of the stained cells at 590 nm was then measured using an automatic microtest-plate reader. Average absorbency of the control wells (Ac) without any treatment was calculated, average absorbency of each treatment group (ATi) was determined, and then the average cell viability of each treatment group (Vi) was derived using the following formula: [formula] B. Result
# Murine sarcoma 180 cells = test: Cancer bearing mice life prolongation test; format: in vivo, C57BL/6J mice; conditions: for DS50 (days of survival for 50% animals) / LPR(%) life prolongation rate: oral, lifetime or up to 120 days
# Excerpt: Fifty (50) C57BL/6J mice weighing 18-22 g, without sex discrimination, were randomly assigned to one control group and four treatment groups, each with 10 animals. Murine sarcoma 180 cells were intraperitoneally transplanted to the mice. 20(S)-Rh2 was provided by Shenyang Pegasus Pharmaceutical R&D Co., China, with a purity of over 98%. The molecular weight for Rh2 was 622.3. The novel sapogenin PAM-120 was derived from the process described in Example 2 according to this invention. The molecular weight of PAM-120 was 442.7, and the purity for PAM-120 was higher than 99%. The drugs were prepared into a suspension form respectively. The mice were weighed daily prior to drug administration to determine the actual measurement of drug administered. Drug administration started from 24 hours post tumor inoculation. The mice in the two low-dose treatment groups were orally given the Rh2 and PAM-120 preparations using a gastric catheter at a daily dose of 10 mg/kg of Rh2 and 10 mg/kg of PAM-120 respectively for a lifetime or up to 120 days. The mice in the two high-dose treatment groups were orally given the Rh2 and PAM-120 preparations using a gastric catheter at a daily dose of 25 mg/kg of Rh2 and 25 mg/kg of PAM-120 respectively for a lifetime or up to 120 days. The mice in the control group were orally given a normal saline. For each group, the days of survival for 50% animals (DS50) and the average days of survival (ADS) were recorded. For groups containing one or more animals that could have lived longer than 120 days (the designed sacrifice day was d 120), the ADS would be so calculated that these animals were counted as if they had died on day 120, and a note would be made. The life prolongation rate (LPR) was calculated with the following formula: [formula] B. Result
# [2] = tested on: human malignant glioma cells (U87); test: Mouse subcutaneous human malignant glioma (U87) model (FIG. 6); format: in vivo, Nude mice; conditions: 25 mg/ml; for tumor growth compared with PBS control animals (in words): treatment from day 7, tumor sizes measured day 7 and day 24
# Protocol: FIG. 6 illustrates a graph of the therapeutic effect of PAM-120 on mouse subcutaneous human malignant glioma (U87) model. Nude mice were subcutaneously implanted with human malignant glioma cells (U87). On day 7 post tumor implantation, animals were treated with 25 mg/ml PAM-120 or equal dose of Rh2. Tumor sizes were measured on day 7 (before treatment) and day 24 (after the treatment).
# [3] = tested on: human malignant glioma cells (U87); test: Mouse intracranial human malignant glioma (U87) model (FIG. 5); format: in vivo, Nude mice; conditions: 25 mg/kg and 50 mg/kg, treatment from day 10 post implantation, p<0.01 Kaplan Meier
# Protocol: FIG. 5 illustrates a graph of the therapeutic effect of PAM-120 on mouse intracranial human malignant glioma (U87) model. Nude mice were intracranially implanted with human malignant glioma cells (U87). On day 10 post tumor implantation, animals were treated with various dosages of PAM-120.
Compound,Absorbency of Stained Cells (M ± SD) ([1]; high-dose 40 μg/ml),Absorbency of Stained Cells (M ± SD) ([1]; low-dose 25 μg/ml),viability at 40 µg/mL ([1]; high-dose 40 μg/ml),viability at 25 µg/mL ([1]; low-dose 25 μg/ml),inhibitory effect on proliferation of H460 cells (in words) [1],inhibitory effect on proliferation of H460 cells compared with Rh2 (in words) [1],V(%) cancer cell viability ([1]; high-dose 40 μg/ml),V(%) cancer cell viability ([1]; low-dose 25 μg/ml),DS50 (days of survival for 50% animals) (Murine sarcoma 180 cells; 10 mg/kg daily),LPR(%) life prolongation rate (Murine sarcoma 180 cells; 10 mg/kg daily),DS50 (days of survival for 50% animals) (Murine sarcoma 180 cells; 25 mg/kg daily),LPR(%) life prolongation rate (Murine sarcoma 180 cells; 25 mg/kg daily),tumor growth compared with PBS control animals (in words) [2],"mice that survived the whole 120 days, no tumors found postmortally (Murine sarcoma 180 cells; 25 mg/kg treatment group, 10 animals)",anti-cancer effect on murine sarcoma compared with Rh2 (in words) (Murine sarcoma 180 cells; P<0.01 compared with relevant Rh2 treatment dose groups),life prolongation of mice bearing murine sarcoma compared with control (in words) (Murine sarcoma 180 cells; P<0.01 compared with the average days of survival in the control),survival time after tumor implantation (in words) [3],"tumor sizes compared with Rh2 treated animals (in words) ([2]; equal dose of Rh2, day 24, p<0.05)"
C=C(C)[C@H](O)C/C=C(\C)C1CC[C@]2(C)C1[C@H](O)CC1[C@@]3(C)CC[C@H](O)C(C)(C)C3[C@@H](O)C[C@]12C (stereo partly drawn) [PBM-100],.130 ± .019,.223 ± .040,36.5%,62.7%,significant inhibitory effect,notable increase in inhibitory effect,,,,,,,,,,,,
"3-O-[β-D-glucopyranosyl(1→2)-β-D-glucopyranosyl]-dammara-20(22E)-diene-3,12-diol [PAN-30]",.147 ± .032,.249 ± .045,,,significant inhibitory effect,,41.49%,70.30%,,,,,,,,,,
"CC(C)=CCC[C@](C)(O)[C@H]1CC[C@]2(C)[C@@H]1[C@H](O)C[C@@H]1[C@@]3(C)CC[C@H](O[C@@H]4O[C@H](CO)[C@@H](O)[C@H](O)[C@H]4O)C(C)(C)[C@@H]3CC[C@]12C [Rh2, 3-O-β-D-glucopyranosyl-20(s)-protopanaxadiol, reference compound]",.181 ± .049,.278 ± .030,,,,,50.99%,78.49%,22 days,68.0%,41 days,201.4%,significantly inhibited tumor growth,,,,,
"C=C(CCC=C(C)C)C1CC[C@]2(C)C1[C@H](O)CC1[C@@]3(C)CC[C@H](O)C(C)(C)C3CC[C@]12C (stereo partly drawn) [PAM-120, Dammara-20(21)-diene-3,12-diol]",.125 ± .031,.220 ± .051,35.3%,62.1%,significant inhibitory effect,notable increase in inhibitory effect,,,38 days,162.6%,77 days,448.3%,significantly inhibited tumor growth,Two,Better anti-cancer effect,significant increase in life prolongation,significantly longer survival time,significantly smaller
